Measurements as given in patent publication US20120232066A1, “COMPOSITIONS FOR REDUCING RISK OF ADVERSE EVENTS CAUSED BY DRUG-DRUG INTERACTIONS” (priority 2011, published 2012).

Legend:
[1] = Oral administration of Compound PC-1 and SBTI trypsin inhibitor to rats; hydromorphone in blood; conditions: for Cmax (ng/mL HM): hydromorphone in rat blood, PO PC-1 20 mg/kg
Description: At specified time points, blood samples were drawn, quenched into methanol, centrifuged at 14,000 rpm @ 4° C., and stored at −80° C. until analysis by high performance liquid chromatography/mass spectrometry (HPLC/MS).

[2] = Oral administration of Compound KC-17 co-dosed with Compound 109 to rats; oxycodone in plasma; format: in vivo, rat; conditions: KC-17 50 mg/kg
Description: At specified time points, blood samples were drawn, harvested for plasma via centrifugation at 5,400 rpm at 4° C. for 5 min, and 100 microliters (μl) plasma transferred from each sample into a fresh tube containing 2 μl of 50% formic acid. The tubes were vortexed for 5-10 seconds, immediately placed in dry ice, and then stored in a −80° C. freezer until analysis by HPLC/MS.

[3] = Oral administration of Compound AM-2 and Compound 109 to rats; amphetamine in plasma; format: in vivo, rat; conditions: suppressing Cmax and delaying Tmax
Text: Table 10 and FIG. 10 provide amphetamine exposure results for rats administered with Compound AM-2 and with or without a co-dose of trypsin inhibitor.

Molecule: CC(=O)NC(CCCNC(=N)N)C(=O)NCCN(C)C(=O)Oc1ccc2c3c1OC1C(=O)CCC4C(C2)N(C)CCC314 (stereo not drawn) [Compound PC-1, Hydromorphone 3-(N-methyl-N-(2-N′-acetylarginylamino)) ethylcarbamate]
- Cmax (ng/mL HM) ([1]; SBTI 0 mg/kg): 16.5 ± 5.3 ng/mL
- Cmax (ng/mL HM) ([1]; SBTI 10 mg/kg): 8.9 ± 1.8 ng/mL
- Cmax (ng/mL HM) ([1]; SBTI 100 mg/kg): 6.0 ± 4.0 ng/mL
- Cmax (ng/mL HM) ([1]; SBTI 500 mg/kg): <5 ng/mL
- Cmax (ng/mL HM) ([1]; SBTI 1000 mg/kg): <5 ng/mL

Molecule: N=C(N)c1ccc2cc(OC(=O)c3ccc(N=C(N)N)cc3)ccc2c1 [Compound 109, 6-carbamimidoylnaphthalen-2-yl 4-(diaminomethyleneamino)benzoate]
- effect of Compound 109 on oxycodone release from Compound KC-17 [2]: attenuate release of oxycodone by prodrugs of the embodiments
- effect of Compound 109 on amphetamine release from Compound AM-2 [3]: ability to attenuate

B1: SBTI: trypsin inhibitor from Glycine max (soybean) (Catalog No. 93620, ~10,000 units per mg, Sigma-Aldrich) (protein, UniProt P01070 25-205, looked up)
Trypsin inhibitor A: DFVLDNEGNPLENGGTYYILSDITAFGGIRAAPTGNERCPLTVVQSRNELDKGIGTIISSPYRIRFIAEGHPLSLKFDSFAVIMLCVGIPTEWSVVEDLPEGPAVKIGENKDAMDGWFRLERVSDDEFNNYKLVFCPQQAEDDKCGDIGISIDHDDGTRRLVVSKNKPLVVQFQKLDKESL
- effect of SBTI on hydromorphone release from Compound PC-1 into blood ([1]; rats PO, PC-1 20 mg/kg and 10, 100, 500 or 1000 mg/kg SBTI): suppresses Cmax and delays Tmax
- attenuation of Compound PC-1's ability to release hydromorphone ([1]; rats PO, PC-1 20 mg/kg, at higher SBTI concentrations): approximately 100%
